Results: publication PMC10734620, “A blinded in vitro analysis of the intrinsic immunogenicity of hepatotoxic drugs: implications for preclinical risk assessment” (Toxicological Sciences, 2023)
Like-named read-outs stand apart in the source and are kept apart here.

Assays:
PBMC = assay: Inhibition of mitogen-induced (PHA-P) PBMC proliferation; type: cell-based, human; conditions: PBMC from 3 healthy donors, compound 48 h, then PHA-P 10 µg/ml 24 h, [3H]-thymidine, read-out: IC50, inhibition of mitogen-driven PBMC proliferation
Protocol: Test compounds were provided by GSK to Liverpool as blinded dry powders with a given volume of dimethyl sulfoxide to prepare stock concentrations of 50 mM. Stock concentrations were aliquoted and stored at −80°C until required for experiments. A fresh aliquot was utilized for every experiment. PBMC from 3 healthy donors were used to determine the maximum tolerated concentration of each test compound. PBMC (0.15 × 10^6) were cultured with graded compound concentrations in U-bottomed 96-well plates for 48 h at 37°C, 5% CO2. Phytohemagglutinin (PHA-P; 10 µg/ml) was added to cells for a further 24 h followed by assessment of proliferation through the addition of [^3H]-thymidine (0.5 µCi/well) for the last 16 h. […] The IC50 value was then calculated using 4-parameter logistic curve-fitting model (GraphPad prism 7.0).
Figure 2. Toxicity profiles of training and test compounds. […] PHA-P (10 µg/ml) was added to cells for a further 24 h followed by assessment of proliferation through the addition of [^3H]-thymidine (0.5 µCi/well) for the last 16 h. […] 4-parameter logistic functions were fit to the data and IC50 values were then reported (GraphPad prism 7.0). […] LPB (Liverpool Pharmacology Biobank) represents the unique identifier for PBMC isolated from each consented healthy blood donor for drug safety research. Percentage proliferation for each compound concentration = Proliferation following drug exposure divided by proliferation after cell culture media exposure multiplied by 100.

T-cell clones = assay: Generation and drug-specificity testing of T-cell clones; type: cell-based, human; conditions: priming assay and/or T-cell clones
Protocol: To establish T-cell lines, PBMC from 3 healthy HLA-typed (Table 2) donors were cultured with individual test compounds (at concentrations not associated with inhibition of mitogen-driven PBMC proliferation; see Figure 2 for individual concentrations) for 14 days. Medium was supplemented with IL-2 (50 U/ml; Peprotech, New Jersey) to maintain drug-specific T-cell expansion. T-cell clones were generated from the T-cell lines by serial dilution and repetitive mitogen stimulation ([Schnyder et al., 2000]). T-cells (0.3–3 cells/well) were cultured with irradiated allogenic PBMC (5 × 10^4/well) and PHA-P (1 µg/ml) in IL-2 containing medium. The medium was supplemented with fresh IL-2 on days 6, 9 and every 2 days thereafter. Growing cultures were expanded further with a second round of mitogen stimulation and tested for drug-specific T-cell proliferation on day 28. Cloned T-cells (5 × 10^4/well) were cultured with irradiated autologous EBV-transformed B-cells (1 × 10^4/well) and drug in duplicate wells for 48 h. Wells containing medium served as a negative control. Proliferation was measured by the addition of [^3H]-thymidine followed by scintillation counting. T-cell clones with SI ≥ 2 were considered drug-responsive and expanded using irradiated allogeneic PBMC for dose-response studies and assessment of CD4/8 phenotyping.
Proliferation was measured by the addition of [^3H]-thymidine as described above.
T-cell clones were washed with FACS buffer and CD phenotype determined using flow cytometry. Cells (10 000) were acquired using a FACSCanto II (BD Biosciences) and data analyzed by FACSDiva software.
Figure 6. Generation of training compound (nitroso sulfamethoxazole, vancomycin, and Bandrowski’s base)-specific T-cell clones. PBMC from 3 healthy donors were cultured with training compounds and supplemented with IL-2 (50 U/ml) for 14 days. T-cell clones were generated from the T-cell lines by serial dilution and repetitive mitogen stimulation. T-cells (0.3–3 cells/well) were stimulated with irradiated allogenic PBMC (5 × 10^4/well) and phytohemagglutinin (1 µg/ml). Well growing cultures were subjected to a second round of expansion then tested for drug-specific T-cell proliferation. Proliferation was measured by the addition of ^3H-thymidine followed by scintillation counting. A–C, Initial specificity test for nitroso sulfamethoxazole, vancomycin, and Bandrowski’s base clones. T-cell clones showing stimulation index, SI ≥ 2 were considered drug-responsive and expanded and used in dose-response studies. SI = Drug-induced T-cell proliferation divided by T-cell proliferation in cell culture media. […] T-cell activation was determined using [^3H]-thymidine incorporation.
Figure 7. […] PBMC from 3 healthy donors were cultured with test compounds and supplemented with IL-2 (50 U/ml) for 14 days. T-cell clones were generated from the T-cell lines by serial dilution and repetitive mitogen stimulation. T-cells (0.3–3 cells/well) were stimulated with irradiated allogenic PBMC (5 × 10^4/well) and phytohemagglutinin (1 µg/ml). Well growing cultures were subjected to a second round of expansion then tested for drug-specific T-cell proliferation. Proliferation was measured by the addition of ^3H-thymidine followed by scintillation counting. […] T-cell activation was determined using [^3H]-thymidine incorporation.

[1] = design: method as in Sakatis et al., 2012; Schofield et al., 2021; conditions: Positive = above the threshold of concern; assays not listed negative; ref Sakatis et al., 2012; Schofield et al., 2021; cited from earlier work
[2] = design: method as in FDA DILIrank datasets; conditions: ref FDA DILIrank datasets; cited from earlier work
[3] = design: method as in earlier work; conditions: ref National Institute of Diabetes and Digestive and Kidney Diseases (2012); cited from earlier work
naïve T-cells = assay: Priming of naïve human T-cells (dendritic cell-T-cell coculture); type: cell-based; conditions: for Proliferation of primed T-cells, drug- vs medium-restimulated wells: 14 days priming, restimulation 48 h at single concentration, 48 wells, [3H]-thymidine; for Proliferation in medium restimulated wells after priming: primed 2 weeks, medium restimulation
Protocol: CD14+ monocytes were positively selected using CD14 antibody-conjugated microbeads. This was followed by the depletion of CD25+ cells from the CD14- population and the negative selection of CD45RA+ naïve T-cells. […] Dendritic cells were generated by culturing monocytes with a cocktail of GM-CSF (800 U/ml) and IL-4 (800 U/ml) in culture media for 6 days. Both cytokines were purchased from Peprotech (New Jersey). A maturation cocktail of TNF-α (25 ng/ml) and LPS (1 µg/ml) was added for 16 h before establishing the T-cell priming culture. Dendritic cells (8 × 10^3 per well) were cultured with naïve T-cells (1 × 10^5 per well) and the test compounds in a 96-well U-bottom tissue culture plate for 14 days at 37°C, 5% CO2. Cells were then washed extensively to remove unbound drug and cultures were restimulated with test compound or medium control (48 wells) for 48 h. Subsequent experiments were performed with training compounds to investigate the dose-dependent stimulation of naïve T-cells. In these experiments, T-cells were cultured with 3 concentrations of the test compound and medium (negative control) during the restimulation step. T-cell proliferative responses were determined by addition of [^3H]-thymidine (0.5 µCi/well) for the final 16 h of the culture period. Plates were harvested and counted as described above. […] Student’s t test was performed to determine statistical significance of T-cell proliferation when comparing medium- and drug-treated cultures (*p ≤ .05; **p ≤ .005; ***p < .001).
Figure 3. Naïve T-cell priming with training compounds. CD14+ monocytes were utilized to generate dendritic cells with a cocktail of GM-CSF (800 U/ml) and IL-4 (800 U/ml) in culture media for 6 days. […] A, Nitroso sulfamethoxazole. B, Vancomycin. C, Bandrowski’s base. D, Carbamazepine. E, Piperacillin. The degree of naïve T-cell priming was determined by comparing the counts per minutes (cpm) of drug and media-treated cultures using a beta counter. Student’s t test was performed to determine statistical significance (*p ≤ .05; **p ≤ .005; ***p < .001). Each data point represents T-cells proliferation in individual well of a 96 U-bottomed plate.
Figure 4. Dose-dependent stimulation of primed T-cells with training compound. […] Primed cells were washed extensively and then restimulated with 3 drug concentrations (low, medium, and high) for 48 h followed by determination of T-cell activation by [^3H]-thymidine incorporation. Each data point represents T-cells proliferation in individual well of a 96 U-bottomed plate.
Figure 5. Naïve T-cell priming with test compounds. […] B, Dacarbazine. […] F, Iproniazid. G, Mepivacaine. H, Nevirapine. […] J, Phenoxybenzamine. Primed cells were washed extensively and then restimulated medium or drug for 48 h followed by determination of T-cell activation by [^3H]-thymidine incorporation. Each data point represents T-cells proliferation in individual well of a 96 U-bottomed plate.

| Compound | IC50 (PBMC; Homo sapiens, PBMC) [µM] | IC50 (PBMC) [µM] | Overall immunogenicity call in T-cell assays (T-cell clones) | Routine Assays that are Positive (GSK) [1] | FDA Clinical Hepatotoxicity Concern [2] | LiverTox annotation: likelihood as cause of clinically apparent liver injury [3] | IC50 (PBMC; listed as iproniazid) [µM] | Proliferation of primed T-cells, drug- vs medium-restimulated wells (naïve T-cells) | Proliferation in medium restimulated wells after priming (naïve T-cells) | IC50 (PBMC; listed as mepivacaine) [µM] | IC50 (PBMC; listed as nevirapine) [µM] |
| --- | --- | --- | --- | --- | --- | --- | --- | --- | --- | --- | --- |
| CN(C)/N=N/c1[nH]cnc1C(N)=O [Dacarbazine] | 15 | ≤ 20 | did not flag these compounds as immunogenic | Reactive metabolite; 3D hepatocyte spheroid | Most | Highly likely cause of clinically apparent liver injury. May be immunologically mediated as usually occurs with second or third cycle and accompanied by eosinophilia | – | – | – | – | – |
| COc1cc([C@@H]2c3cc4c(cc3[C@@H](O[C@@H]3O[C@@H]5CO[C@@H](C)O[C@H]5[C@H](O)[C@H]3O)[C@H]3COC(=O)[C@H]23)OCO4)cc(OC)c1O [Etoposide] | 20 | ≤ 20 | no false positives | – | Less | Probable cause of clinically apparent liver injury. Absence of immunoallergic features (rash, fever, eosinophilia) and of autoantibodies noted. Uncommon to have features of hypersensitivity | – | – | – | – | – |
| CC(C)NNC(=O)c1ccncc1 [Iproniazid] | – | 290 | did not flag these compounds as immunogenic | None | Most | – | ≥ 50 | increases in proliferation with drug restimulation was not observed | high level of proliferation | – | – |
| Cc1cccc(C)c1NC(=O)C1CCCCN1C (stereo not drawn) [Mepivacaine] | – | 210 | no false positives | None | No | Unlikely to be a cause of clinically apparent liver injury | – | increases in proliferation with drug restimulation was not observed | high level of proliferation | ≥ 50 | – |
| Cc1ccnc2c1NC(=O)c1cccnc1N2C1CC1 [Nevirapine] | – | 110 | did not flag these compounds as immunogenic | None | Most | Well-known cause of clinically apparent liver injury. Immunoallergic hepatitis associated with specific HLA types | – | increases in proliferation with drug restimulation was not observed | high level of proliferation | – | ≥ 50 |
| O=C1CN(/N=C/c2ccc([N+](=O)[O-])o2)C(=O)N1 [Nitrofurantoin] | 15 | ≤ 20 | did not flag these compounds as immunogenic | – | Most | Well-known cause of clinically apparent liver injury. Oxidative free radical formation. Some cases show autoimmune etiology with linkage to HLA-DR6 and DR2 | – | – | – | – | – |
